# Data published in ChEMBL document CHEMBL1201862, “PubChem BioAssay data set” (2004).
# Active and inactive are the calls of the source.
# Legend:
# [1] = Counterscreen for inhibitors of Trypanosoma brucei methionyl tRNA synthetase (MetRS): Luminescence-based cell-based high throughput dose response assay to identify compounds that are cytotoxic to Jurkat human T lymphocyte cells.; type: functional
# [2] = target: T1, Methionyl-tRNA synthetase, putative (Trypanosoma brucei brucei, UniProt Q38C91); type: functional, Trypanosoma brucei brucei strain 927/4 GUTat10.1
# T1 sequence (Q38C91 whole entry): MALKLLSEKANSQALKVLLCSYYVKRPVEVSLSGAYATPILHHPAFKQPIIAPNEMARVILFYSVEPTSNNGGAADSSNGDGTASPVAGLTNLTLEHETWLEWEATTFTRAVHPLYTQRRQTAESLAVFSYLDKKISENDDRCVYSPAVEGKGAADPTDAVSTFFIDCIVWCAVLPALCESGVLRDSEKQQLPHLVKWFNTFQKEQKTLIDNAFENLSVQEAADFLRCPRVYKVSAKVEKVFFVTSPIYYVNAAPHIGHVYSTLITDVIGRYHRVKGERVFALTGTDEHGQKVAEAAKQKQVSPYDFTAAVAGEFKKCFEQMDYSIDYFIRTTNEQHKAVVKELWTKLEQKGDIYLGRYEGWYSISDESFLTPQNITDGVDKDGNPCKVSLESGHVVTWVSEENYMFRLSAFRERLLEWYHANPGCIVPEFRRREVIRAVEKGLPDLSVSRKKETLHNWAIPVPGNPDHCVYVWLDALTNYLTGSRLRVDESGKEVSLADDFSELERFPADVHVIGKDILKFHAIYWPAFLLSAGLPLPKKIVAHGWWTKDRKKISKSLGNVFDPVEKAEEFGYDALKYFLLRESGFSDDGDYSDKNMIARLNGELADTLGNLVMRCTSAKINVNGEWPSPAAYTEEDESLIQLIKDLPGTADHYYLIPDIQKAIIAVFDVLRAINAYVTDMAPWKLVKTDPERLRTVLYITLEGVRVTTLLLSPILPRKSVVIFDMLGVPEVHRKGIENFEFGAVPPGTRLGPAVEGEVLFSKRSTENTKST
# [3] = target: T1, Methionyl-tRNA synthetase, putative; type: functional, Trypanosoma brucei brucei strain 927/4 GUTat10.1; remark: listed apart in the source
# [4] = inhibitors of firefly luciferase expression or activity, dose response, H4 neuroglioma cells, luminescence (AID 1990); type: functional, cell-based
# [5] = Luminescence Cell-Based Dose Response HTS to Identify Inhibitors of 5'UTR Stem-Loop Driven Prion Protein mRNA Translation in H4 Neuroglioblastoma Cells. [Related pubchem assays: 1827 (Project Summary), 1813 (Primary HTS)]; type: functional
# [6] = HeLa cell cytotoxicity, dose response, cytotoxicity control for MgcRacGAP inhibitor project (AID 624300); type: functional
# [7] = target: T2, Rac GTPase-activating protein 1 (Homo sapiens, UniProt Q9H0H5); test: MgcRacGAP GTPase-activating activity inhibitors, confirmation, biochemical, ADP Hunter fluorescence, primary and confirmatory (AID 624330); type: functional
# T2 sequence (Q9H0H5 whole entry): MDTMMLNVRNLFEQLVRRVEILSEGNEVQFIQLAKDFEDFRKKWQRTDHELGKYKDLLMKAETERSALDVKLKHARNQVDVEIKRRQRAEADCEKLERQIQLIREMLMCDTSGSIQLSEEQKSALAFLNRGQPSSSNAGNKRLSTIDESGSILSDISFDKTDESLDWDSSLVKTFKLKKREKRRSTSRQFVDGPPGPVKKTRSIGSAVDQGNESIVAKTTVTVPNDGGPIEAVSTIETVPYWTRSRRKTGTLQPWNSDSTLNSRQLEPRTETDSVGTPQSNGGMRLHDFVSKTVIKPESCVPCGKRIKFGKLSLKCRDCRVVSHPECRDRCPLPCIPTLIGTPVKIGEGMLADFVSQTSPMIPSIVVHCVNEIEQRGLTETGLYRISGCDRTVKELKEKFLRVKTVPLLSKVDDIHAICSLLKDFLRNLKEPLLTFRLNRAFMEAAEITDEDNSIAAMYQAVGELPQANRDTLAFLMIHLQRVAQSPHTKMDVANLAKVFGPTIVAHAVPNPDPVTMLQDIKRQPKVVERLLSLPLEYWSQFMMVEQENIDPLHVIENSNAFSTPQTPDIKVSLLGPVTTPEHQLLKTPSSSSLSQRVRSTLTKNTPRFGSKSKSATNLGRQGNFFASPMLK
# [8] = inhibitors of SNCA 5'UTR-driven reporter translation, confirmation, H4 neuroglioma cells, luminescence (AID 1988); type: functional, cell-based
# [9] = inhibitors of HIV Env-driven cell fusion, dose response, cherry-pick (AID 652057); type: functional, cell-based
# [10] = off-target signal loss in HeLa-CEM21 co-culture – HeLa F-luc CTL cells, cherry-picked, counter-screen for HIV-1 Env fusion inhibitor project, dose response (AID 652040); type: functional, cell-based;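 note: potency for signal decrease marking cytotoxic or nonspecific inhibition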
# [11] = inhibitors of clade B AD8 Env fusion, dose response, cell-based, cherry-pick (AID 652062); type: functional;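 note: luciferase signal from cell-cell fusion driven by HIV-1 clade B AD8 Env; potency is for inhibitors of fusion seen as a drop in luminescence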
# [12] = ZM109 Env clade C HIV-1 fusion inhibitors, dose response, HeLa effector, CEM target cells, luciferase, cherry-pick (AID 652058); type: functional, cell-based
# [13] = CEM21 lymphoblast cell cytotoxicity, dose response, cytotoxicity control for viral fusion inhibitor project, CellTiter-Glo luminescence, cherry-picked (AID 652042); type: functional, cell-based;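 note: potency for signal decrease meaning cytotoxicity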
# [14] = LGR2 antagonists, dose response, cell-based, HEK293, CRE-luciferase reporter, cherry pick, set 2 (AID 743343); type: functional;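 note: transfected cells were stimulated with diluted bursicon conditioned medium after compound addition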
# [15] = MC4R antagonists, dose response, counter-screen for LGR2 antagonist project, cell-based, plate reader, cherry pick (AID 743444); type: functional;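 note: transfected HEK 293 cells stimulated with alpha-MSH peptide; potency of inhibitors of the alpha-MSH evoked signal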
# [16] = inhibitors of intracellular T. cruzi replication, confirmation, NIH3T3 host cells, beta-gal luminescence (AID 2044); type: functional, cell-based;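 note: intracellular parasites grown in NIH/3T3 mouse fibroblasts as host cells; luminescent beta-galactosidase reporter signal from transgenic T. cruzi replicating inside host cells; inhibitors lower the luminescence signal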
# [17] = target: T3, DNA repair protein RAD52 homolog (Homo sapiens, UniProt P43351); type: functional, biochemical
# T3 sequence (P43351 whole entry): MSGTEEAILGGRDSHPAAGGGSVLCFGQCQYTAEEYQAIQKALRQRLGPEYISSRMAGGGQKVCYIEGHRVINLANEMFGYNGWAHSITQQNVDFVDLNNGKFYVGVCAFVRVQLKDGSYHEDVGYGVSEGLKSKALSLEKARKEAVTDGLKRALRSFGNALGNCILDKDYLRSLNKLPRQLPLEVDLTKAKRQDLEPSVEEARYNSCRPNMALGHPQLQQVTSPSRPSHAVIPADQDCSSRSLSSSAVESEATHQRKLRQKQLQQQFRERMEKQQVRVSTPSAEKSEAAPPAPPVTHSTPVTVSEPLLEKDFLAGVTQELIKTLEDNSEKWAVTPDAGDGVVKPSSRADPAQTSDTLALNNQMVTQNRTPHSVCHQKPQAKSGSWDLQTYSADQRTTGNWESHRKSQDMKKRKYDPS
# [18] = cytotoxicity toward NIH3T3 fibroblasts, dose response, counter-screen, cell-based, ATP luminescence, mouse fibroblasts (AID 2010); type: functional;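 note: cells exposed to compound for about 90 hours before reading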
# [19] = inhibitors of PGC1a acetylation in cells, dose response, cell-based, cherry-picked samples (AID 720514); type: functional;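 note: potency may reflect raised or lowered acetylation signal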
compound,measurement,setting,value
CCOc1ccc(CONS(=O)(=O)c2ccc(NC(C)=O)cc2)cc1Cl,IC50,[1],83.3 µM (inactive)
same,IC50,[2],11.1 µM (inactive)
same,IC50,[3],17.7 µM (inactive)
CCOC(=O)c1sc2nc(CSc3ccccc3)nc(N3CCCN(C)CC3)c2c1C,EC50,[4],16.9 µM (active)
same,EC50,[5],> 120 µM (not active)
same,CC50,[6],53.8 µM (active)
same,IC50,[7],149 µM (active)
same,EC50,[8],8.64 µM (active)
CN1CC(c2ccccc2Cl)C2(COc3ccccc3C2=O)C12C(=O)Nc1ccccc12 (stereo unspecified),AC50,[9],4.21 µM (active)
same,AC50,[10],6.24 µM (active)
same,AC50,[11],10.6 µM (active)
same,AC50,[12],3 µM (active)
same,AC50,[13],65.3 µM (active)
Cc1ccc(NC(=O)CN(C)C(=O)c2cc(S(=O)(=O)N(C)C)ccc2N2CCCC2)cc1,IC50,[1],83.3 µM (inactive)
same,IC50,[2],4.27 µM (active)
same,IC50,[3],10.4 µM (inactive)
Cc1ccc(NC(=O)c2cnn(-c3ccccc3)c2C)cc1C,AC50,[14],7.23 µM (active)
same,AC50,[15],4.12 µM (active)
COc1ccc(C2c3ccc4ccccc4c3Oc3ncn(CCN(C)C)c(=N)c32)cc1 (stereo unspecified),EC50,[16],1.34 µM (active)
same,AC50,[17],19.9 µM (active)
same,EC50,[18],22.1 µM (active)
Cc1sc2nc(CN3CCCCC3)nc(Nc3ccc4c(c3)OCCO4)c2c1C,AC50,[17],22.2 µM (active)
CCn1c(SCC(=O)c2c[nH]c3ccccc23)nc2cc(S(=O)(=O)N3CCOCC3)ccc21,IC50,[1],83.3 µM (inactive)
same,IC50,[2],2.58 µM (active)
same,IC50,[3],12.2 µM (inactive)
CC1=C(Cl)C2=NS(=O)(=O)CCN2C=C1Cl,AC50,[19],3.55 µM (active)
